PMC4370192, “Discovery of Specific Inhibitors for Intestinal E. coli β-Glucuronidase through In Silico Virtual Screening” (The Scientific World Journal, 2015)

Key:
[1] = biological target: T1, E. coli β-glucuronidase (eβG) (Escherichia coli, UniProt P05804); experiment: In vitro βG-activity assay (pNPG hydrolysis), eβG; assay type: biochemical; conditions: for eβG activity (%) with 50 μM compound: pH 7.3, percent of activity vs untreated control
T1 construct: histidine tag (N); made in house; host or cells: E. coli BL21 (DE3)
T1 sequence (P05804 whole entry): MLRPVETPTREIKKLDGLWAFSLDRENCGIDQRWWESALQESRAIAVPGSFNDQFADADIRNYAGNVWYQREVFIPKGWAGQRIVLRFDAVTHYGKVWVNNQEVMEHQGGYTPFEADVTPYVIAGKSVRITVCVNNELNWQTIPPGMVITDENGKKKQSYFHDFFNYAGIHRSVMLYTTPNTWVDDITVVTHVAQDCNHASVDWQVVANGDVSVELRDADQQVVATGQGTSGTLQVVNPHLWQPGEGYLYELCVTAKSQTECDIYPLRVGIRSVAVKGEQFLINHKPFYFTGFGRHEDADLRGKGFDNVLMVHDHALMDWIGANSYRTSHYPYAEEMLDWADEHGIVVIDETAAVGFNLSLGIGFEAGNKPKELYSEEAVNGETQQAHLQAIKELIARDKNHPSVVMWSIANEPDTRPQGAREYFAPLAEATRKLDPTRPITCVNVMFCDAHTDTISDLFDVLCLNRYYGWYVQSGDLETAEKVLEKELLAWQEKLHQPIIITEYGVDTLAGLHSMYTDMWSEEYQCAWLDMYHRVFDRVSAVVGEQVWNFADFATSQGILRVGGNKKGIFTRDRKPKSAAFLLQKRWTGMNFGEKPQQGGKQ
Method: (§1) Plasmid pRESTB containing βG gene and a histidine tag at the N-terminus was constructed as described. Recombinant βG (human and E. coli) was produced by isopropyl β-D-thiogalactopyranoside (IPTG) induction of BL21 (DE3) bacteria. βG was purified from bacterial supernatants by affinity chromatography on nickels Sepharose 6 Fast Flow (GE Healthcare). The column was washed by phosphate-buffered saline (PBS), with 50 mM imidazole, and βG was eluted by PBS with 250 mM imidazole. The purified βG was desalted on a Sephadex G-25 column equilibrated with PBS and stored at −80°C.
The candidate compounds were purchased from SPECS (The Netherlands). Each candidate was provided as a solid power and dissolved in 100% DMSO (Sigma-Aldrich) to 10 mM as stock. Candidates were screened for their inhibition specificity of eβG versus hβG, which were conducted at pH 7.3 or pH 5.4, in triplicate, respectively. 40 μL purified βG was treated with 10 μL compound solution at 37°C for 30 min and sequentially incubated with 50 μL of pNPG (Sigma-Aldrich) at 37°C for 30 min. Reactions were quenched with 5 μL of 2 N sodium hydroxide (Sigma-Aldrich). Each reaction consisted of 3.75 ng purified βG, 50 μM compound, and 5 mM pNPG in PBS containing 10% DMSO and 0.05% BSA (Sigma-Aldrich). βG-activities were measured by color development of pNP detected on a microplate reader at OD 405 nm. […] For IC50 determination, compounds at various concentrations (100 μM to 0.001 μM) were added.
Supplementary file 740815.f1.pdf: Fifty-nine candidate compounds were acquired from the initial virtually screening which was designed to target the bacterial loop of eβG and its active site. The docking energy scores of 59 candidate compounds measured by the DOCK program are -43 to -55 kcal/mol. (Table S1) The candidate compounds were purchased from SPECS (Zoetermeer, The Netherlands). Each candidate was rovided as a solid power and dissolved in 100% DMSO (Sigma-Aldrich, MO, USA) to 10 mM as stock. Candidates were screening for their inhibition specificity of eβG verse hβG, which were conducted at pH 7.3 or pH 5.4 in triplicate, respectively. 40 µL purified βG was treated with 10 µL compound solution at 37 °C for 30 min, and sequentially incubated with 50 µL of pNPG (Sigma-Aldrich) at 37 °C for 30 min. Reactions were quenched with 5 µL of 2 N sodium hydroxide (Sigma-Aldrich). Each reaction consisted of 3.75 ng purified βG, 50 µM compound, and 5 mM pNPG in PBS containing 10% DMSO and 0.05% BSA (Sigma-Aldrich). βG-activities were measured by color development of pNP detected on a microplate reader at OD 405 nm. […] Especially, the inhibiting ability against eβG activity was >95% in 7 candidates of eβG specific inhibitors (Table S1).
(§2) Fifty-nine candidate compounds were acquired from the initial virtually screening which was designed to target the bacterial loop of eβG and its active site. The docking energy scores of 59 candidate compounds measured by the DOCK program are -43 to -55 kcal/mol. (Table S1) The candidate compounds were purchased from SPECS (Zoetermeer, The Netherlands). Each candidate was provided as a solid power and dissolved in 100% DMSO (Sigma-Aldrich, MO, USA) to 10 mM as stock. Candidates were screening for their inhibition specificity of eβG verse hβG, which were conducted at pH 7.3 or pH 5.4 in triplicate, respectively. 40 μL purified βG was treated with 10 μL compound solution at 37 °C for 30 min, and sequentially incubated with 50 μL of pNPG (Sigma-Aldrich) at 37 °C for 30 min. Reactions were quenched with 5 μL of 2 N sodium hydroxide (Sigma-Aldrich). Each reaction consisted of 3.75 ng purified βG, 50 μM compound, and 5 mM pNPG in PBS containing 10% DMSO and 0.05% BSA (Sigma-Aldrich). βG-activities were measured by color development of pNP detected on a microplate reader at OD 405 nm. […]
percent of βG activity compared with the untreated control.
Especially, the inhibiting ability against eβG activity was >95% in 7 candidates of eβG specific inhibitors (Table S1).
Table S1. […]

[2] = biological target: T2, human βG (hβG) (Homo sapiens, UniProt P08236); experiment: In vitro βG-activity assay (pNPG hydrolysis), hβG; assay type: biochemical; conditions: pH 5.4, percent of activity vs untreated control
T2 construct: histidine tag (N); made in house; host or cells: E. coli BL21 (DE3)
T2 sequence (P08236 23-651): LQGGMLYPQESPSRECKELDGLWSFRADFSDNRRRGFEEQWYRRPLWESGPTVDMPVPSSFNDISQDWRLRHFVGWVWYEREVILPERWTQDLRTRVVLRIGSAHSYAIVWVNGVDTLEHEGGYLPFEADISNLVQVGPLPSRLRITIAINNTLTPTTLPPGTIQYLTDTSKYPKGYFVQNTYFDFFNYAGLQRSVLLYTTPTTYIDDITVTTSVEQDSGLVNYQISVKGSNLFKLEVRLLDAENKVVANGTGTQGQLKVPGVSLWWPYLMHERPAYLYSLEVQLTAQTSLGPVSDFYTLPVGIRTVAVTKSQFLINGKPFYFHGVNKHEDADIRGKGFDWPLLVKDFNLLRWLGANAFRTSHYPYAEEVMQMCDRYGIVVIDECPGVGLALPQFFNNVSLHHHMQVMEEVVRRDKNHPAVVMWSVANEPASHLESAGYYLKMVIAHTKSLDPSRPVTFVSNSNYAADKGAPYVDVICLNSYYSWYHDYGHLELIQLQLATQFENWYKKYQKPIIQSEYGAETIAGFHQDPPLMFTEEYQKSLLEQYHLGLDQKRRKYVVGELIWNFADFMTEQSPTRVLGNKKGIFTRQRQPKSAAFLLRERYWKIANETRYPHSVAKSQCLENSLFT
Method: as §1
The candidate compounds were purchased from SPECS (The Netherlands). Each candidate was provided as a solid power and dissolved in 100% DMSO (Sigma-Aldrich) to 10 mM as stock. Candidates were screened for their inhibition specificity of eβG versus hβG, which were conducted at pH 7.3 or pH 5.4, in triplicate, respectively. 40 μL purified βG was treated with 10 μL compound solution at 37°C for 30 min and sequentially incubated with 50 μL of pNPG (Sigma-Aldrich) at 37°C for 30 min. Reactions were quenched with 5 μL of 2 N sodium hydroxide (Sigma-Aldrich). Each reaction consisted of 3.75 ng purified βG, 50 μM compound, and 5 mM pNPG in PBS containing 10% DMSO and 0.05% BSA (Sigma-Aldrich). βG-activities were measured by color development of pNP detected on a microplate reader at OD 405 nm.
as §2, with “(Table” for “Fifty-nine candidate compounds were acquired from the initial virtually screening which was designed to target the bacterial loop of eβG and its active site. The docking energy scores of 59 candidate compounds measured by the DOCK program are -43 to -55 kcal/mol. (Table”, “rovided” for “provided”, “µL” for “μL”, “µM” for “μM”
candidate compounds were purchased from SPECS (Zoetermeer, The Netherlands). Each candidate was provided as a solid power and dissolved in 100% DMSO (Sigma-Aldrich, MO, USA) to 10 mM as stock. Candidates were screening for their inhibition specificity of eβG verse hβG, which were conducted at pH 7.3 or pH 5.4 in triplicate, respectively. 40 μL purified βG was treated with 10 μL compound solution at 37 °C for 30 min, and sequentially incubated with 50 μL of pNPG (Sigma-Aldrich) at 37 °C for 30 min. Reactions were quenched with 5 μL of 2 N sodium hydroxide (Sigma-Aldrich). Each reaction consisted of 3.75 ng purified βG, 50 μM compound, and 5 mM pNPG in PBS containing 10% DMSO and 0.05% BSA (Sigma-Aldrich). βG-activities were measured by color development of pNP detected on a microplate reader at OD 405 nm.

Row | SMILES | eβG activity (%) with 50 μM compound [1] [%] | hβG activity (%) with 50 μM compound [2] [%] | inhibition at 10 µM ([1]; read-out: inhibition of eβG activity) [%] | IC50 ([1]; recombinant eβG, pNPG substrate, pH 7.3) [µM]
1 | O=S(=O)(c1ccc(Br)cc1)N1CCNCC1 [Compound 8329] | 33.19 | 97.77 |  | 
2 | COc1cc(C(=O)NCC(=N)N)cc(OC)c1OC [Compound 0015] | 17.59 | 108.51 |  | 
3 | O=C1C=C(Nc2cccc3cc(S(=O)(=O)O)ccc23)c2ccccc2C1=O [Compound 4277] | 44.37 | 115.21 |  | 
4 | O=C(O)C1CC=CCC1C(=O)Nc1ccc(Br)c2cccnc12 (stereo not drawn) [Compound 5244] | 26.21 | 44.38 |  | 
5 | COc1ccc(S(=O)(=O)NCCN2CCOCC2)c2ccccc12 [Compound 7670] | 43.16 | 93.31 |  | 
6 | CN(C)CCCNS(=O)(=O)c1ccc2c3c(cccc13)C(=O)N2 [Compound 8010] | 23.58 | 98.84 |  | 
7 | O=C1SCCC1NS(=O)(=O)c1cc(Cl)ccc1Cl (stereo not drawn) [Compound 3927] | 18.73 | 106.86 |  | 
8 | Cc1ccc(Cl)cc1NC1=NS(=O)(=O)c2ccccc21 [Compound 1448] | 11.11 | 109.67 |  | 
9 | COc1ccc2ccccc2c1CNCC1CCNCC1 [Compound 9927] | 25.00 | 113.80 |  | 
10 | CN1CCN(CC(=O)Nc2c(C#N)cnn2-c2ccccc2)CC1 [Compound 0220] | 47.15 | 113.55 |  | 
11 | N/C(=N\c1nc2c(c(=O)[nH]1)CCC2)Nc1ccccc1 [Compound 5905] | 24.93 | 104.96 |  | 
12 | N=C1C(c2nc3ccccc3c(=O)[nH]2)=C(O)CN1c1cccc(Cl)c1 [Compound 7036] | 6.70 | 95.45 |  | 
13 | COc1ccc(Cl)cc1NC(=O)CC(C(=O)O)N1CCNCC1 (stereo not drawn) [Compound 9183] | 39.67 | 107.36 |  | 
14 | NC1=C2N=C(c3ccc([N+](=O)[O-])cc3)NN2NN1 [Compound 8013a] | 60.40 | 100.33 |  | 
15 | COc1cc(C(=O)OC(C)CN2CCN(C)CC2)cc(OC)c1OC (stereo not drawn) [Compound 3250] | 33.62 | 96.94 |  | 
16 | Cc1cc(NS(=O)(=O)c2ccc(NC(=O)C(C)Oc3ccc(Cl)cc3Cl)cc2)no1 (stereo not drawn) [Compound 8889] | 11.40 | 102.15 |  | 
17 | CCOC(=O)N1CCC2(CC1)OS(=O)(=O)C=C2N [Compound 0523] | 31.77 | 109.26 |  | 
18 | O=C(Nc1ccc(S(=O)(=O)N2CCCC2)cc1)c1[nH]ncc1[N+](=O)[O-] [Compound 6843] | 27.49 | 108.76 |  | 
19 | Cc1cc2nc(C[n+]3cccc(C(N)=O)c3)[nH]c2cc1C [Compound 0136] | 19.16 | 108.76 |  | 
20 | CN1CCN(Cc2nc3sc4c(c3c(=O)[nH]2)CCCC4)CC1 [Compound 3181] | 30.27 | 88.02 |  | 
21 | N=c1c2sc3nc4ccccc4n3c2ncn1N [Compound 6015] | 10.40 | 72.07 |  | 
22 | CN1CCN(C(=O)c2cc3cc([N+](=O)[O-])ccc3oc2=O)CC1 [Compound 2715] | 53.06 | 114.38 |  | 
23 | CS(=O)(=O)c1ccc2nc(NC(=O)c3ccccc3C(=O)O)sc2c1 [Compound 9107] | 29.70 | 105.37 |  | 
24 | Cc1ccc(S(=O)(=O)N=C2C=C(Sc3nnc[nH]3)C(=O)c3ccccc32)cc1 [Compound 4041, 4-methyl-N-(4-oxo-3-(1H-1,2,4-triazol-5ylsulfanyl)-1(4H)-naphthalenylidene)benzenesulfonamide] |  |  | > 80 | 2.8
